Data from patent US5093477A, “Rapidly cleavable substrate for HIV protease” (priority 1988, dated 1992).
Where a SMILES comes first, the peptide text is derived from it. [ ]: non-standard residue; d: D form. The star is where a group is joined. Sta = CC(C)C[C@H](N)[C@@H](O)CC(=O)O; Isovaleryl = CC(C)CC(=O)*

Experiments:
Type in all cases: biochemical
HIV protease [1] = biological target: T1, HIV protease (Human immunodeficiency virus type 1 group M subtype B, UniProt P04585); test: HIV protease inhibitor test with Ser-Phe-Asn-Phe-Opr-Gln-Ile as substrate; conditions: substrate Ser-Phe-Asn-Phe-Opr-Gln-Ile 2 mg/ml, HIV protease No. I (1:10), blank 33.62 %
T1 construct: The enzyme is composed of only 99 amino acids and evidently eliminates itself from the pol gene
Procedure: A) General procedure for testing inhibitors of HIV protease with Ser-Phe-Asn-Phe-Opr-Gln-Ile
2 mg of Ser-Phe-Asn-Phe-Opr-Gln-Ile are dissolved in 1 ml of MGTE15 buffer (possibly using ultrasound) and subsequently filtered through a sterile filter (0.45 μm).
2.5 times the desired molarity of the inhibitor per ml of solution are weighed in and dissolved in DMSO (10% of the final volume). The solution is diluted to the final volume with MGTE15 buffer and filtered through a sterile filter (0.45 μm).
5 μl of the HIV protease solution are diluted with MGTE25 buffer as required.
10 μl portions of the substrate solution are pipetted into test tubes (16×100) with screw caps. 10 μl of MGTE15 buffer which contains 10% DMSO are pipetted into the blank. 10 μl portions of the inhibitor solutions are added to the remaining test tubes. These samples are incubated at 37° C. for 5-10 minutes and then 5 μl of the protease solution are added to each. After reaction at 37° C. for 2 hours, 10 or 20 μl of each sample (depending on the sensitivity of the HPLC apparatus) are removed by pipette, placed in microvials and diluted with 120 μl of the HPLC solvent.
(§1) Solvent system: 80% 0.1 M phosphoric acid pH 2.5. 20% (w/w) acetonitrile
(§2) Column: Merck ®LICHROSORB RP18 (5 μm) 250×4
(§3) Column temperature: 42° C.
(§4) Detector parameters: 215 nm, 0.08 AUF, 18.2° C.
(§5) Analysis time: 11 minutes
The % content of the tetrapeptide peak relative to the tetrapeptide+heptapeptide total corresponds to the proportion cleaved.

HIV protease [2] = biological target: T1, HIV protease; test: HIV protease kinetics: comparison of the cleavage rate of several substrates (Tab. 6); conditions: substrate 2 mg/ml, HIV protease No. II (1:4)
Procedure: C) Procedure for the HIV protease kinetics (Tab. 6) 10 μl of substrate solution (2 mg/ml) in MGTEl5 buffer and 10 μl of MGTE15 buffer are combined and incubated at 37° C. for 5-10 minutes. 5 μl of HIV protease No. II (diluted 1:4 with MGTE25 buffer) are added to this, and the mixture is shaken at 37° C. Subsequent procedure as in B).
Column: Merck HIBAR ®LICHROSORB RP8 (7 μm) 250×4
Flow rate: 1 ml min for SFNFPQI and SFNFOQI 0.5 ml/min for […] and VSQNYOIVQ. Otherwise as in Ae).

HIV protease [3] = biological target: T1, HIV protease; test: HIV protease kinetics: cleavage of peptide substrates followed by HPLC (Tab. 1-4); conditions: substrate 4 mg/ml, HIV protease No. II (5 μl)
Procedure: e) Conditions for HPLC analysis:
as §1, §2, §3, §4, §5
Retention time of the substrate: 8.1 minutes
Retention time of the N-terminal tetrapeptide: 3.9 minutes
Under the conditions chosen here, the heptapeptides are separated from the N-terminal tetrapeptide produced in the enzymatic cleavage. The % content of the tetrapeptide peak relative to the tetrapeptide+heptapeptide total corresponds to the proportion cleaved.
B) Procedure for HIV protease kinetics (Tab. 1-4)
10 μl of substrate solution (2-4 mg/ml) in MGTE15 buffer and 10 μl of MGTE15 buffer which contains 10% dimethyl sulfoxide are combined and incubated at 37° C. for 5-10 minutes. 5 μl of the HIV protease solution in MGTE25 buffer are added to this, and the mixture is shaken at 37° C. […] The microliter syringe is used to load the total amount onto the HPLC column. HPLC conditions as in A).

Row | Molecule | % tetrapeptide = % cleavage (HIV protease [2]; 5 min) [%] | % tetrapeptide = % cleavage (HIV protease [2]; 10 min) [%] | % tetrapeptide = % cleavage (HIV protease [2]; 20 min) [%] | % tetrapeptide = % cleavage (HIV protease [2]; 40 min) [%] | % tetrapeptide = % cleavage (HIV protease [2]; 80 min) [%] | % tetrapeptide = % cleavage (HIV protease [2]; 160 min) [%] | % tetrapeptide = % cleavage (HIV protease [2]; 320 min) [%] | further results
1 | CC(C)CC(=O)N[C@H](C(=O)N[C@H](C(=O)N[C@@H](CC(C)C)[C@@H](O)CC(=O)N[C@@H](C)C(=O)N[C@@H](CC(C)C)[C@@H](O)CC(=O)O)C(C)C)C(C)C [Pepstatin A] (Isovaleryl-VV[Sta]A[Sta]-OH) | – | – | – | – | – | – | – | Cleavage (%) (HIV protease [1]; inhibitor 10^-4 M): 1.25%; Cleavage (%) (HIV protease [1]; inhibitor 10^-5 M): 4.73%; Cleavage (%) (HIV protease [1]; inhibitor 10^-6 M): 18.22%; Cleavage (%) (HIV protease [1]; inhibitor 10^-7 M): 25.09%
2 | H-SFNFPQI-OH [SFNFPQI, H-Ser-Phe-Asn-Phe-Pro-Gln-Ile-OH] | 0.25 | 4.68 | 7.01 | 11.34 | 19.50 | 34.19 | 48.18 | % cleavage after 5 minutes' cleavage time (text summary of Tab. 1 and 2) (HIV protease [3]; 5 minutes, both experiments): about 4%; % cleavage (HIV protease [3]; Experiment A, 5 min): 4.00%; % cleavage (HIV protease [3]; Experiment A, 10 min): 8.19%; % cleavage (HIV protease [3]; Experiment A, 20 min): 14.57%; % cleavage (HIV protease [3]; Experiment A, 40 min): 23.40%; % cleavage (HIV protease [3]; Experiment A, 80 min): 39.43%; % cleavage (HIV protease [3]; Experiment A, 160 min): 58.39%; % cleavage (HIV protease [3]; Experiment A, 320 min): 70.16%; % cleavage (HIV protease [3]; Experiment B, 5 min): 4.15%; % cleavage (HIV protease [3]; Experiment B, 10 min): 7.54%; % cleavage (HIV protease [3]; Experiment B, 20 min): 14.35%; % cleavage (HIV protease [3]; Experiment B, 40 min): 23.00%; % cleavage (HIV protease [3]; Experiment B, 80 min): 37.68%; % cleavage (HIV protease [3]; Experiment B, 160 min): 57.11%; % cleavage (HIV protease [3]; Experiment B, 320 min): 72.51%
3 | H-VSQNYPIVQ-OH | 3.66 | 6.53 | 11.31 | 20.32 | 31.49 | 55.00 | 62.48 | –
4 | H-Val-Ser-Gln-Asn-Tyr-Opr-Ile-Val-Gln-OH [VSQNYOIVQ] | 10.27 | 20.72 | 40.47 | 60.50 | 88.98 | 100.00 | 100.00 | –
